# Measurements as given in US20150143553A1, “Methods And Compositions Comprising A Drosophila Model Of Amyotrophic Lateral Sclerosis” (priority 2013, published 2015).
# Columns and labels:
# [1] = test system: Drosophila larvae expressing G298S TDP-43 in motor neurons; assay: Drug screen: rescue of lethality caused by G298S TDP-43 expression in motor neurons (D42 Gal4); assay type: in vivo; settings: TDP^G298S
# Source text: […] Larvae expressing TDP-43 (wild type or mutant, as shown) are raised on drug containing food.
# […] Larvae expressing TDP-43 (wt or mutant) were raised on drug containing food.
# Using a Drosophila model of ALS based on TDP-43 that recapitulates several aspects of the disease pathophysiology (33, 35), a drug screen aimed at identifying FDA approved compounds with neuroprotective potential in vivo were designed (FIG. 37A). […] This phenotype was used to screen for drug candidates with therapeutic potential as determined by their ability to rescue pupal lethality and produce viable adults with extended wings (FIG. 37A).
# Larvae expressing TDP-43 in motor neurons (D42>TDP-43) were raised on fly food containing different amounts of drug (1, 10 and 25 μM, see Materials and Methods for details) or Dimethyl Sulfoxide (DMSO) as vehicle control (FIG. 37B, C).
# UAS TDP-43 males were crossed with D42-Gal4 female virgins on fly food containing either DMSO or pioglitazone. For DMSO controls, the same volume of DMSO as the corresponding drug concentration was added. Bromophenol blue was added to a final concentration of approximately 0.02% to ensure homogeneity. Crosses were made on drug food with 3 female virgins and 2 males in each vial, and were maintained at 25° C. unless noted. The parents were discarded after 5-7 days then the vials were screened for adult progeny with straight wings from day 14 to day 25. All adults were screened for TDP-43 expression by visualizing the YFP tag. Total number of pupae was counted on day 25. Percent survival was calculated using the formula (total number of straight-winged adults/total number of pupae)×100. All experiments were performed in triplicate.
# ALS patients = ALS patients administered pioglitazone; cited from earlier work
# [2] = test system: Larvae expressing TDPG298S in motor neurons; assay: Larval turning assay, D42>TDPG298S; assay type: in vivo, Drosophila; settings: 1 μM pioglitazone in food; DMSO 25.8+/−1.8 sec
# Protocol: (§1) Assays were performed as disclosed herein. Briefly, wandering third instar larvae were placed on a grape juice plate at room temperature. After becoming acclimated, crawling larvae were gently turned onto their backs (ventral side up) and monitored until they were able to turn back (dorsal side up) and continue their forward movement. The amount of time that it took each larva to complete this task was recorded. Twenty to thirty larvae were used per genotype. Student's t-test was performed to assess statistical significance.
# (§2) Next an ideal drug concentration was determined using a more sensitive and disease relevant assay that measures neuromuscular coordination, namely larval turning (see Materials and Methods for details). Larvae expressing TDPWT or TDPG298S in motor neurons (D42>TDP-43) were raised on food containing either 1, 5, 10, 25 μM pioglitazone or DMSO and assayed for their locomotor ability using larval turning assays.
# (§3) Assays were performed as described herein (33, 35). Briefly, wandering third instar larvae were placed on room temperature grape juice plates, allowed to acclimate then gently turned ventral side up. The time required for larvae to flip back to dorsal side up and start moving forward was noted as the larval turning time. At least 30 larvae per genotype and condition were tested.
# [3] = test system: wild-type control larvae (D42>w1118); assay: Larval turning assay, wild-type control larvae; assay type: in vivo, Drosophila; settings: 1 μM pioglitazone
# Protocol: as §2, §3
# [4] = test system: Larvae expressing TDPWT in motor neurons; assay: Larval turning assay, D42>TDPWT; assay type: in vivo, Drosophila; settings: 1 μM pioglitazone in food; DMSO 14.5+/−1 sec
# Protocol: as §1, §2, §3
# D42>TDPWT larvae = assay: Global metabolomic profiling, D42>TDPWT larvae; assay type: in vivo, Drosophila; settings: 1 μM pioglitazone
# Protocol: To gain insight into the mechanism by which pioglitazone is neuroprotective, a global metabolomic approach was taken using larvae expressing TDP-43 in motor neurons (D42>TDP-43) and D42>w1118 controls raised on either 1 μM pioglitazone, DMSO or regular food. To determine specific metabolites that were restored by pioglitazone in the context of TDPWT, the metabolic profiles of D42>TDPWT larvae raised on drug food versus DMSO were compared and 111 alterations were found among a total of 572 metabolites detected in the samples. […] This led to the identification of 28 metabolites altered by both pioglitazone and TDPWT (Table 2). […] In addition, 6 metabolites further altered by pioglitazone in the same direction as that of TDP-43 were found, consistent with a potential worsening effect. Among the 28 metabolites some were also affected by DMSO alone as determined by comparing the metabolic profiles of D42>TDPWT larvae raised on DMSO and D42>TDPWT larvae raised on regular food.
# D42 Gal4 virgin females were crossed with UAS TDP-43 YFP or w1118 males and raised on regular food (RF), DMSO or 1 μM Pioglitazone (PGZ) containing food. 50-60 third instar larvae (approximately 50-60 mg) were collected and flash frozen in liquid nitrogen. Samples were made in 5 replicates. Global metabolomic study was performed following standard protocols by Metabolon, INC (Durham, N.C.). Briefly, protein samples were divided into four fractions: one for analysis by UPLC-MS/MS with positive ion mode electrospray ionization, one for analysis by UPLC-MS/MS with negative ion mode electrospray ionization, one for analysis by GC-MS, and one sample was reserved for backup. Raw data was extracted, peak-identified and QC processed using Metabolon's hardware and software. Compounds were identified by comparison to library entries of purified standards or recurrent unknown entities. Peaks were quantified using area-under-the-curve. Following normalization to Bradford protein concentration data were log transformed. Missing values for a given metabolite were imputed with the minimum observed value for each compound based on the assumption that they were below the limit of instrument detection sensitivity. For studies spanning multiple days, a data normalization step was performed to correct variation resulting from instrument inter-day tuning differences.
# Student's T test was used for statistical analysis of larval turning experiments and Log-rank test was used for survival analyses. For metabolomics standard statistical analyses were performed in ArrayStudio on log transformed data. For those analyses not standard in ArrayStudio, the programs R (cran.r-project.org/) or JMP (jmp.com) were used. Welch's two-sample t-test and matched pairs t-test were used to compute p-values. False discovery rates were calculated as described (69).
# [5] = test system: Drosophila larvae expressing wild-type TDP-43 in motor neurons; assay: Drug screen: rescue of lethality caused by wild-type TDP-43 expression in motor neurons (D42 Gal4); assay type: in vivo; settings: for Av. % rescue (number of rescued adults/total number of pupae × 100%): TDP^WT
compound,measurement,setting,value
CCc1ccc(CCOc2ccc(CC3SC(=O)NC3=O)cc2)nc1 (stereo not drawn) [Pioglitazone],Av. % rescue (number of rescued adults/total number of pupae × 100%),[1]; PGZ 1 μM,19.4%
same,Av. % rescue (number of rescued adults/total number of pupae × 100%),[1]; PGZ 10 μM,15.0%
same,Av. % rescue (number of rescued adults/total number of pupae × 100%),[1]; PGZ 25 μM,9.7%
same,hazard ratio for mortality,ALS patients,increase in hazard ratio for mortality
same,larval turning time,[2],17.3 ± 1.1 s
same,effect on larval turning time in control larvae,[3],no effect
same,larval turning time,[4],9.2 ± 0.7 s
same,metabolites altered by both pioglitazone and TDPWT,D42>TDPWT larvae,28
same,metabolites altered in opposite direction compared to TDPWT (restoration),D42>TDPWT larvae,14
same,metabolites further altered in the same direction as TDP-43 (worsening),D42>TDPWT larvae,6
same,metabolites similarly affected by pioglitazone and TDPWT (no further change),D42>TDPWT larvae,8
same,"saccharopine level, pioglitazone compared to DMSO",D42>TDPWT larvae,0.67
same,"N-acetylglutamine level, pioglitazone versus DMSO",D42>TDPWT larvae; Pvalue<0.05,0.74
same,"4-hydroxybutyrate (GHB) level, pioglitazone compared to DMSO",D42>TDPWT larvae; Pvalue=0.04,0.41
same,"metabolite alterations, drug food versus DMSO",D42>TDPWT larvae; among a total of 572 metabolites,111
same,"pyruvate level, pioglitazone compared to DMSO",D42>TDPWT larvae; not significant,0.68
same,Av. % rescue (number of rescued adults/total number of pupae × 100%),[5]; PGZ 1 μM,15.2%
same,Av. % rescue (number of rescued adults/total number of pupae × 100%),[5]; PGZ 10 μM,1.7%
same,Av. % rescue (number of rescued adults/total number of pupae × 100%),[5]; PGZ 25 μM,0.8%
same,Preliminary rescue result: adults with normal wings,"[5]; transgene WT2, 50 μM in fly food",1 Adult Normal Wings Adults
same,Rescue Effect,"[5]; transgene wt, primary screening (50 μM), out of 15-20 pupae",1 adults
